Data taken from the supplement of paper PMC10307832.

How the values were obtained:
Assay in all cases: relative viability (nuclei count vs DMSO), 5 days (fraction); higher = more cells survive
Daporinad + Crizotinib = compound: O=C(/C=C/c1cccnc1)NCCCCC1CCN(C(=O)c2ccccc2)CC1 [Daporinad] + C[C@@H](Oc1cc(-c2cnn(C3CCNCC3)c2)cnc1N)c1c(Cl)ccc(F)c1Cl [Crizotinib] (partner 1 µM)
In short: (§1)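 Values are medians from duplicate plates. Each reflects relative viability, defined as the nuclei count of treated wells over that of vehicle wells. Lung cancer cell lines in 1536-well plates were pin-tool dosed one day after seeding with one drug alone or with a fixed anchor-drug dose plus five library-drug doses (not always all listed) in √10 steps, then fixed, stained and imaged at 4× after 5 days.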

R406 + Palbociclib = compound: COc1cc(Nc2ncc(F)c(Nc3ccc4c(n3)NC(=O)C(C)(C)O4)n2)cc(OC)c1OC [R406] + CC(=O)c1c(C)c2cnc(Nc3ccc(N4CCNCC4)cn3)nc2n(C2CCCC2)c1=O [Palbociclib] (partner 0.5 µM)
In short: as §1

Daporinad + Decitabine = compound: O=C(/C=C/c1cccnc1)NCCCCC1CCN(C(=O)c2ccccc2)CC1 [Daporinad] + Nc1ncn([C@H]2C[C@H](O)[C@@H](CO)O2)c(=O)n1 [Decitabine] (partner 2 µM)
In short: as §1

R406 + AZD7762 = compound: COc1cc(Nc2ncc(F)c(Nc3ccc4c(n3)NC(=O)C(C)(C)O4)n2)cc(OC)c1OC [R406] + NC(=O)Nc1cc(-c2cccc(F)c2)sc1C(=O)N[C@H]1CCCNC1 [AZD7762] (partner 0.2 µM)
In short: as §1

Row | Cell Line | relative viability (Daporinad + Crizotinib; first compound 0.0005 µM) | relative viability (Daporinad + Crizotinib; first compound 0.001581 µM) | relative viability (Daporinad + Crizotinib; first compound 0.005 µM) | relative viability (Daporinad + Crizotinib; first compound 0.01581 µM) | relative viability (R406 + Palbociclib; first compound 0.08 µM) | relative viability (R406 + Palbociclib; first compound 0.253 µM) | relative viability (R406 + Palbociclib; first compound 0.8 µM) | relative viability (R406 + Palbociclib; first compound 2.53 µM) | relative viability (R406 + Palbociclib; first compound 8 µM) | relative viability (Daporinad + Decitabine; first compound 0.0005 µM) | relative viability (Daporinad + Decitabine; first compound 0.001581 µM) | relative viability (Daporinad + Decitabine; first compound 0.005 µM) | relative viability (Daporinad + Decitabine; first compound 0.01581 µM) | relative viability (R406 + AZD7762; first compound 0.08 µM) | relative viability (R406 + AZD7762; first compound 0.253 µM) | relative viability (R406 + AZD7762; first compound 0.8 µM) | relative viability (R406 + AZD7762; first compound 2.53 µM) | relative viability (R406 + AZD7762; first compound 8 µM)
1 | EMC-BAC-2 | 0.743 | 0.763 | 0.527 | 0.247 | 0.518 | 0.538 | 0.508 | 0.44 | 0.378 | 0.993 | 1.05 | 0.666 | 0.464 | 1.05 | 1.26 | 1.17 | 1.04 | 0.391
2 | LU99A | 0.527 | 0.596 | 0.685 | 0.549 | 0.343 | 0.392 | 0.422 | 0.273 | 0.26 | 0.898 | 0.908 | 0.943 | 0.645 | 0.317 | 0.358 | 0.39 | 0.413 | 0.283
3 | ABC-1 | 0.862 | 1.23 | 1.02 | 0.68 | 0.777 | 0.784 | 0.48 | 0.653 | 0.492 | 0.807 | 1.33 | 0.987 | 0.911 | 0.912 | 0.769 | 0.865 | 0.858 | 0.669
4 | NCI-H1793 |  |  |  |  | 0.352 | 0.309 | 0.253 | 0.28 | 0.153 | 0.45 | 0.496 | 0.489 | 0.564 | 0.471 | 0.368 | 0.415 | 0.283 | 0.413
5 | NCI-H1299 | 0.969 | 0.963 | 0.974 | 1.01 |  |  |  |  |  |  |  |  |  |  |  |  |  | 
6 | EBC-1 | 0.185 | 0.166 | 0.162 | 0.181 |  |  |  |  |  |  |  |  |  |  |  |  |  | 
7 | NCI-H2347 | 0.841 | 0.892 | 0.826 | 0.775 | 0.423 | 0.415 | 0.453 | 0.446 | 0.406 | 0.457 | 0.721 | 0.619 | 0.578 | 0.785 | 0.81 | 0.776 | 0.422 | 0.529
8 | NCI-H1993 | 0.954 | 0.941 | 1.01 | 1.08 | 0.651 | 0.667 | 0.611 | 0.683 | 0.607 | 0.576 | 0.629 | 0.602 | 0.639 | 0.741 | 1.1 | 0.727 | 0.719 | 0.537
9 | NCI-H322M | 0.847 | 1.03 | 0.985 | 0.592 | 0.463 | 0.452 | 0.468 | 0.456 | 0.354 | 0.659 | 0.749 | 0.683 | 0.664 | 0.453 | 0.54 | 0.588 | 0.36 | 0.423
10 | NCI-H661 | 0.975 | 0.998 | 1.04 | 0.52 | 0.398 | 0.411 | 0.382 | 0.42 | 0.322 | 0.615 | 0.625 | 0.416 | 0.362 |  |  |  |  | 
11 | COR-L23 | 0.819 | 0.651 | 0.568 | 0.153 | 0.224 | 0.346 | 0.342 | 0.166 | 0.157 | 0.43 | 0.471 | 0.437 | 0.227 |  |  |  |  | 
12 | COR-L 105 | 0.763 | 0.722 | 0.723 | 0.798 | 0.374 | 0.386 | 0.39 | 0.316 | 0.33 | 0.692 | 0.601 | 0.612 | 0.6 |  |  |  |  | 
13 | NCI-H2023 | 0.612 | 0.595 | 0.631 | 0.59 | 0.359 | 0.355 | 0.359 | 0.174 | 0.106 | 0.208 | 0.247 | 0.247 | 0.232 |  |  |  |  | 
14 | NCI-H1648 |  |  |  |  | 0.276 | 0.275 | 0.301 | 0.296 | 0.303 | 0.463 | 0.528 | 0.511 | 0.44 | 0.719 | 0.618 | 0.67 | 0.554 | 0.633
15 | NCI-H596 | 1.05 | 1.02 | 1.12 | 0.677 |  |  |  |  |  | 0.982 | 1 | 0.912 | 0.636 | 1.08 | 1.1 | 0.977 | 0.825 | 0.836
16 | A549 | 0.903 | 0.777 | 0.844 | 0.546 |  |  |  |  |  | 0.227 | 0.252 | 0.234 | 0.161 |  |  |  |  | 
17 | NCI-H520 | 0.789 | 0.726 | 0.258 | 0.114 | 0.173 | 0.209 | 0.244 | 0.164 | 0.108 | 0.558 | 0.513 | 0.283 | 0.18 |  |  |  |  | 
18 | NCI-H1563 | 0.85 | 0.857 | 0.772 | 0.623 |  |  |  |  |  |  |  |  |  |  |  |  |  | 
19 | NCI-H1395 |  |  |  |  | 0.609 | 0.663 | 0.652 | 0.47 | 0.551 | 0.713 | 0.816 | 0.765 | 0.784 | 0.427 | 0.354 | 0.351 | 0.417 | 0.36
20 | NCI-H2009 | 1.02 | 1.04 | 1.06 | 0.827 | 0.232 | 0.212 | 0.265 | 0.192 | 0.114 | 0.356 | 0.395 | 0.381 | 0.372 |  |  |  |  | 
21 | SK-MES-1 | 0.959 | 1.01 | 1.12 | 0.9 | 0.313 | 0.297 | 0.307 | 0.259 | 0.192 | 0.377 | 0.374 | 0.383 | 0.375 |  |  |  |  | 
22 | IA-LM | 0.734 | 0.917 | 1.05 | 0.82 |  |  |  |  |  |  |  |  |  |  |  |  |  | 
23 | SW 1573 | 0.834 | 0.831 | 0.728 | 0.479 | 0.402 | 0.364 | 0.467 | 0.32 | 0.127 | 0.472 | 0.499 | 0.406 | 0.197 |  |  |  |  | 
24 | NCI-H1703 | 0.872 | 0.669 | 0.655 | 0.435 |  |  |  |  |  |  |  |  |  | 0.144 | 0.137 | 0.115 | 0.105 | 0.112
25 | SW 900 |  |  |  |  | 0.471 | 0.559 | 0.518 | 0.617 | 0.096 | 0.438 |  | 0.403 | 0.374 | 0.536 | 0.814 | 0.787 | 0.232 | 0.146
